Assays:
IRAK1 = target: T1, IRAK1 (Homo sapiens, UniProt P51617); experiment: IRAK1 enzymatic assay (ADP-Glo luminescence); assay type: biochemical; conditions: human recombinant His-TEV-IRAK1 (194-712), ATP 1 μM; read-out: IRAK 1 IC50
T1 construct: His-TEV-IRAK1 (194-712); His (N); TEV cleavage site (N)
Procedure: IRAK1 is a human purified recombinant enzyme (His-TEV-IRAK1 (194-712))
In this assay, IRAK1 hydrolyses ATP and autophosphorylates. Measurement of IRAK-1 inhibition is performed in 384-well format based on luminescence assay (ADP-Glo™ Kinase Assay from Promega). Purified human recombinant IRAK1 ([…]) and serial diluted compounds in DMSO (range of concentration from 10 μM to 0.5 nM) or controls (1% DMSO) are incubated for 15 minutes at RT in assay buffer containing 50 mM Hepes pH 7.0, Fatty acid-free BSA 0.1%, Dithiothreitol (DTT) 2 mM, MgCl2 10 mM, EGTA 0.5 mM, Triton X-100 0.01%. The kinase reaction is then initiated by the addition of ATP at a concentration of 1 μM. After 2 hours of incubation at RT, the reaction is stopped and the unconsumed ATP depleted by the addition of ADP-Glo™ Reagent according to supplier instructions. After 40 minutes of incubation at RT, the Kinase Detection Reagent is then added to the assay plate according to supplier instructions. After 20 minutes of incubation at RT, the luminescence signal is measured with a luminometer (PerkinElmer Envision or equivalent reader).

IRAK4 = target: T2, IRAK4 (Homo sapiens, UniProt Q9NWZ3); experiment: IRAK4 enzymatic assay (ADP-Glo luminescence); assay type: biochemical; conditions: human recombinant His-TEV-IRAK4 (1-460), STK1-biotin peptide substrate
T2 construct: His-TEV-IRAK4 (1-460); His (N); TEV cleavage site (N)
T2 sequence (Q9NWZ3 1-460): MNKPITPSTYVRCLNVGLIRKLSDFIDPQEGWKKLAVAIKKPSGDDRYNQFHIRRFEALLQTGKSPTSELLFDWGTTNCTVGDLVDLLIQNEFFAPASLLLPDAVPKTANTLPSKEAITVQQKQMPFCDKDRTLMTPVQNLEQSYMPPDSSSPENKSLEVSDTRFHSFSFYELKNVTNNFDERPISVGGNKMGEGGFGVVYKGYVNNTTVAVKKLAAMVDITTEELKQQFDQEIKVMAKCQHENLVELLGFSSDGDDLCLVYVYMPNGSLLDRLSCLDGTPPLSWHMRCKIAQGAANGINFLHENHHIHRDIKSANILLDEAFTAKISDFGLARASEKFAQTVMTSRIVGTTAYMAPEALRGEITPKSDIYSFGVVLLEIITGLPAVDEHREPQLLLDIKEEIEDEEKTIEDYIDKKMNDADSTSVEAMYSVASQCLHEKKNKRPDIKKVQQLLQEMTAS
Procedure: IRAK4 is a human purified recombinant enzyme (His-TEV-IRAK4 (1-460)).
In this assay, IRAK4 hydrolyses ATP, autophosphorylates and phosphorylates a Serine/Threonine generic peptidic substrate (STK: 61ST1BLC from CisBio International). Measurement of IRAK-4 inhibition is performed in 384-well format based on a luminescence assay (ADP-Glo™ Kinase Assay from Promega). Purified human recombinant IRAK4 ([…]) and serial diluted compounds in DMSO (range of concentration from 10 μM to 0.5 nM) or controls (1% DMSO) are incubated for 15 minutes at RT in assay buffer containing 50 mM Hepes pH 7.0, Fatty acid-free BSA 0.1%, Dithiothreitol (DTT) 2 mM, MgCl2 10 mM, EGTA 0.5 mM, Triton X-100 0.01%, MnCl2 5 mM. The kinase reaction is then initiated by the addition of ATP ([…]) and the peptidic substrate STK1-biotin peptide (300 nM). After 2 hours of incubation at RT, the reaction is stopped and the unconsumed ATP depleted by the addition of ADP-Glo™ Reagent according to supplier instructions. After 40 minutes of incubation at RT, the Kinase Detection Reagent is then added to the assay plate according to supplier instructions. After 20 minutes of incubation at RT, the luminescence signal is measured with a plate-reading luminometer (PerkinElmer Envision or equivalent reader).

[1] = test system: TLR7 induced IL-6 secretion in human mononuclear cells (PBMC's); experiment: TLR7 induced IL-6 in human PBMC's; assay type: cell-based; conditions: TLR7 specific ligand 2 uM overnight, IL-6 AlphaLISA
Procedure: TLR7 Induced IL-6 in Human PBMC's
Human PBMC assay was used as one of the functional assaya to monitor the activity of IRAK1 and IRAK4 small molecule inhibitors on TLR7 induced IL-6 secretion in human mononuclear cells (PBMC's). Human PBMCs were prepared from buffy coats (whole blood enriched with leukocytes and platelets) obtained from healthy volunteers used either fresh or frozen are plated in assay media (RPMI+2% P/S/L-glu+10% HI-FBS) and pre-treated with compounds in DMSO/media (range of concentrations from 25 uM to 0.4 nM) or controls (0.25% DMSO) for 30 minutes at 37° C. in assay media. Following pre-treatment with IRAK1 and IRAK4 inhibitors, PBMC's were stimulated with TLR7 specific ligand (2 uM) overnight (16-18 hrs) at 37° C. After incubation supernatant was transferred to 384 well PE AlphaPlate-384 (6005350) and IL-6 is quantified using Perkin Elmer IL-6 Alpha LISA kit (AL223C). Plates were read on an Envision® plate reader with Alpha Technology®.

T1 sequence (P51617 194-712): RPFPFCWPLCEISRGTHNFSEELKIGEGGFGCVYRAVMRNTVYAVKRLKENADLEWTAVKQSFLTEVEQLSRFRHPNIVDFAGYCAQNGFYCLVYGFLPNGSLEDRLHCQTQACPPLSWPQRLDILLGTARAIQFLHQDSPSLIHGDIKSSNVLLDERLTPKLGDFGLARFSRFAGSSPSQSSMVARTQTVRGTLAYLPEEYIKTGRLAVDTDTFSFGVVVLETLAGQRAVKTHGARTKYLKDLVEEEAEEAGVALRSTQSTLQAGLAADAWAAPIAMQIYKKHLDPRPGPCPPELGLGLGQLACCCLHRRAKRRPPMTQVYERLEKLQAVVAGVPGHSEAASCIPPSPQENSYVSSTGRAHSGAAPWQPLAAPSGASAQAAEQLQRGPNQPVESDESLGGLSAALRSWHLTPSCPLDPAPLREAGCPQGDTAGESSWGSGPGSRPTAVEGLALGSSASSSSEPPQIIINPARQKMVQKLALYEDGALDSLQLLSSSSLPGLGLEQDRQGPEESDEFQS

Structure (SMILES)	IC50 (IRAK1) [nM]	IC50 (IRAK4) [nM]	IC50 ([1]; Homo sapiens, PBMC) [nM]	IC50 [1] [nM]
Cc1ccn(C)c(=O)c1-c1ccc2c(c1)[nH]/c(=N\C(=O)c1cccc(C(F)(F)F)c1)n2CCCO [Compound 6, (E)-N-(5-(1,4-dimethyl-2-oxo-1,2-dihydropyridin-3-yl)-1-(3-hydroxypropyl)-1H-benzo[d]imidazol-2(3H)-ylidene)-3-(trifluoromethyl)benzamide]	100 to 1000	≤ 100		
C=CCCn1/c(=N/C(=O)c2cccc(C(F)(F)F)c2)[nH]c2cc(C3CCN(C)C3=O)ccc21 (stereo not drawn) [Compound 17, N-[1-But-3-enyl-5-(1-methyl-2-oxo-pyrrolidin-3-yl)-1,3-dihydro-benzoimidazol-(2E)-ylidene]-3-trifluoromethyl-benzamide]	100 to 1000	≤ 100	100 to 1000	
CN1CCC(c2ccc3c(c2)nc(NC(=O)c2cccc(C(F)(F)F)c2)n3CCCO)C1=O (single isomer, unassigned) [Compound 23a]	100 to 1000	≤ 100	≤ 100	
CN1CCCC(c2ccc3c(c2)[nH]/c(=N\C(=O)c2cccc(C(F)F)c2)n3C[C@@](C)(F)CO)C1=O (stereo partly drawn) [Compound 2b, (E)-3-(difluoromethyl)-N-(1-((R)-2-fluoro-3-hydroxy-2-methylpropyl)-5-(1-methyl-2-oxopiperidin-3-yl)-1H-benzo[d]imidazol-2(3H)-ylidene)benzamide]	100 to 1000	≤ 100	≤ 100	
CN1C(=O)CCC1(C)c1ccc2c(c1)nc(NC(=O)c1cccc(C(F)F)c1)n2CCCO (single isomer, unassigned) [Compound 31a]	100 to 1000	≤ 100	1000 to 10000	
CN1CC(c2ccc3c(c2)nc(NC(=O)c2cccc(C(F)F)c2)n3CCCO)C(C)(C)C1=O (single isomer, unassigned) [Compound 27b]	100 to 1000	≤ 100		100 to 1000
CN1CCC[C@H](c2ccc3c(c2)[nH]/c(=N\C(=O)c2cccc(C(F)F)c2)n3C[C@](C)(F)CO)C1=O (single isomer, unassigned) [Compound 3c]	100 to 1000	≤ 100	≤ 100	
CN1CCC(c2ccc3c(c2)[nH]/c(=N\C(=O)c2cccc(C(F)(F)F)c2)n3CC(O)CO)C1=O (single isomer, unassigned) [Compound 20b]	100 to 1000	≤ 100		1000 to 10000
CN1CCC[C@H](c2ccc3c(c2)[nH]/c(=N\C(=O)c2cccc(C(F)(F)F)c2)n3CCCO)C1=O [Compound 1b, (R,E)-N-(1-(3-hydroxypropyl)-5-(1-methyl-2-oxopiperidin-3-yl)-1H-benzo[d]imidazol-2(3H)-ylidene)-3-(trifluoromethyl)benzamide]	100 to 1000	≤ 100	1000 to 10000	
CN1CCCC(c2ccc3c(c2)[nH]/c(=N\C(=O)c2cccc(C(F)(F)F)c2)n3CCC(O)CO)C1=O (single isomer, unassigned) [Compound 22a]	100 to 1000	≤ 100		≤ 100
CN1CCC(c2ccc3c(c2)nc(NC(=O)c2cccc(C(F)(F)F)c2)n3CCCO)C1=O (stereo not drawn) [Compound 23, N-[1-(3-hydroxypropyl)-5-(1-methyl-2-oxopyrrolidin-3-yl)-1H-1,3-benzodiazol-2-yl]-3-(trifluoromethyl)benzamide]	100 to 1000	≤ 100	≤ 100	
CN1CCC(C)(c2ccc3c(c2)nc(NC(=O)c2cccc(C(F)(F)F)c2)n3CCCO)C1=O (single isomer, unassigned) [Compound 29b]	100 to 1000	≤ 100		100 to 1000
CN1CCC(c2ccc3c(c2)[nH]/c(=N\C(=O)c2cccc(C(F)(F)F)c2)n3CCC(O)CO)C1=O (single isomer, unassigned) [Compound 21c]	100 to 1000	≤ 100		≤ 100
CN1CCCC(c2ccc3c(c2)[nH]/c(=N\C(=O)c2cccc(C(F)(F)F)c2)n3CCC(O)CO)C1=O (stereo not drawn) [Compound 22, N-[1-(3,4-Dihydroxy-butyl)-5-(1-methyl-2-oxo-piperidin-3-yl)-1,3-dihydro-benzoimidazol-(2E)-ylidene]-3-trifluoromethyl-benzamide]	100 to 1000	≤ 100	≤ 100	
CN1CC(c2ccc3c(c2)nc(NC(=O)c2cccc(C(F)(F)F)c2)n3CCCO)C(C)(C)C1=O (single isomer, unassigned) [Compound 25a]	≤ 100	≤ 100	100 to 1000	
O=C(/N=c1\[nH]c2cc(C3(O)COC3)ccc2n1CCCO)c1cccc(C(F)(F)F)c1 [Compound 11, (E)-N-(5-(3-hydroxyoxetan-3-yl)-1-(3-hydroxypropyl)-1H-benzo[d]imidazol-2(3H)-ylidene)-3-(trifluoromethyl)benzamide]	1000 to 10000	≤ 100		
O=C1C=C(c2ccc3c(c2)[nH]/c(=N\C(=O)c2cccc(C(F)(F)F)c2)n3CCCO)CO1 [Compound 9, (E)-N-(1-(3-hydroxypropyl)-5-(5-oxo-2,5-dihydrofuran-3-yl)-1H-benzo[d]imidazol-2(3H)-ylidene)-3-(trifluoromethyl)benzamide]	100 to 1000	≤ 100		
CN1CCCC(c2ccc3c(c2)[nH]/c(=N\C(=O)c2cccc(C(F)F)c2)n3C[C@](C)(F)CO)C1=O (stereo partly drawn) [Compound 2a, (E)-3-(difluoromethyl)-N-(1-((S)-2-fluoro-3-hydroxy-2-methylpropyl)-5-(1-methyl-2-oxopiperidin-3-yl)-1H-benzo[d]imidazol-2(3H)-ylidene)benzamide]	100 to 1000	≤ 100		
Cn1cccc(-c2ccc3c(c2)[nH]/c(=N\C(=O)c2cccc(C(F)(F)F)c2)n3CCCO)c1=O [Compound 4, (E)-N-(1-(3-hydroxypropyl)-5-(1-methyl-2-oxo-1,2-dihydropyridin-3-yl)-1H-benzo[d]imidazol-2(3H)-ylidene)-3-(trifluoromethyl)benzamide]	100 to 1000	≤ 100		
O=C(/N=c1\[nH]c2cc(C3CCCCC3=O)ccc2n1CCCO)c1cccc(C(F)(F)F)c1 (stereo not drawn) [Compound 8, (E)-N-(1-(3-hydroxypropyl)-5-(2-oxocyclohexyl)-1H-benzo[d]imidazol-2(3H)-ylidene)-3-(trifluoromethyl)benzamide]	≤ 100	≤ 100		

— patent US9969710B2, “Heteroaryl compounds as IRAK inhibitors and uses thereof” (Merck Patent GmbH, priority 2015, dated 2018)
